Publication PMC3962780 (ChemMedChem, 2013)
Blank lines part the entries; values can stand above or below the molecule they belong to.

Experiments:
ERα [1] = biological target: T1, ERα (Homo sapiens, UniProt P03372); experiment: Inhibition of 17β estradiol induced ERE-luciferase activity in MCF-7 cells; type: cell-based; settings: cotreatment with E2
T1 sequence (P03372 1-595): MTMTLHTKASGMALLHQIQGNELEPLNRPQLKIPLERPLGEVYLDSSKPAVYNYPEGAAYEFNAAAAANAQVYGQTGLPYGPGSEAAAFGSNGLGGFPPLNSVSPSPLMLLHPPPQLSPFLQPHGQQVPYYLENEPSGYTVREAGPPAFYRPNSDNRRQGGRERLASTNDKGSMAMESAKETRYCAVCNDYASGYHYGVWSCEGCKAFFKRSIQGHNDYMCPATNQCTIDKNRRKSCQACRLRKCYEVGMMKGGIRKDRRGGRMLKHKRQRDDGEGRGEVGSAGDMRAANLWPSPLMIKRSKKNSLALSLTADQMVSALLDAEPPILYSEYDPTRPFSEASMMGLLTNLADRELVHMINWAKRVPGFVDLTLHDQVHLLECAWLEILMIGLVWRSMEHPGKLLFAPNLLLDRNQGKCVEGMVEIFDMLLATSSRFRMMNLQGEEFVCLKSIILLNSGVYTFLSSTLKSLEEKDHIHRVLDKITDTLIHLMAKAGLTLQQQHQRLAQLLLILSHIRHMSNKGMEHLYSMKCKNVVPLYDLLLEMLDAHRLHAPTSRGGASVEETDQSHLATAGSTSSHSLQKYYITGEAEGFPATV

ERα [2] = biological target: T1, ERα; experiment: Ishikawa alkaline phosphatase assay; type: cell-based
MDA-MB-231 ER(−) cells = experiment: Cytotoxicity assay; type: cell-based, human; settings: hybrid molecules 10 μM; 24, 48 and 72 h
MCF-7 ER(+) cells = experiment: Cytotoxicity assay; type: cell-based, human
human recombinant HDAC1 = human recombinant HDAC1 (Homo sapiens, UniProt Q13547); experiment: HDAC activity assay, recombinant HDAC1; type: biochemical
human recombinant HDAC3 = human recombinant HDAC3 (Homo sapiens, UniProt O15379); experiment: HDAC activity assay, recombinant HDAC3; type: biochemical
human recombinant HDAC2 = human recombinant HDAC2 (Homo sapiens, UniProt Q92769); experiment: HDAC activity assay, recombinant HDAC2; type: biochemical
[3] = biological target: T2, recombinant HDAC8 (purified from E. coli) (Homo sapiens, UniProt Q9BY41); experiment: HDAC activity assay, recombinant HDAC8; type: biochemical
T2 sequence (Q9BY41 1-377): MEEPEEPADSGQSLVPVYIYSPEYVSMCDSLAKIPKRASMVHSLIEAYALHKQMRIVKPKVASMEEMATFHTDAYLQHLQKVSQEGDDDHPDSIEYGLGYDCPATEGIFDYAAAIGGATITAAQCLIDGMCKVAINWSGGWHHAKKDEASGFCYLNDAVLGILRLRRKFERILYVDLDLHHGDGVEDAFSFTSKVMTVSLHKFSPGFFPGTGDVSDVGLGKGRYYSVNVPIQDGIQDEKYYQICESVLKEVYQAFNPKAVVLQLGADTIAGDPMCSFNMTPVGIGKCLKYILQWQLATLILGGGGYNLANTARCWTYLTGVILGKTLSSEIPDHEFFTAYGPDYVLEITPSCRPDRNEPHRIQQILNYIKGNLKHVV

MCF-7 cells = settings: MCF-7, 48 h, 4-OHT 10 μM; ref Bicaku et al. [9b]; cited from earlier work

Chain of human recombinant HDAC1 (Q13547 whole entry): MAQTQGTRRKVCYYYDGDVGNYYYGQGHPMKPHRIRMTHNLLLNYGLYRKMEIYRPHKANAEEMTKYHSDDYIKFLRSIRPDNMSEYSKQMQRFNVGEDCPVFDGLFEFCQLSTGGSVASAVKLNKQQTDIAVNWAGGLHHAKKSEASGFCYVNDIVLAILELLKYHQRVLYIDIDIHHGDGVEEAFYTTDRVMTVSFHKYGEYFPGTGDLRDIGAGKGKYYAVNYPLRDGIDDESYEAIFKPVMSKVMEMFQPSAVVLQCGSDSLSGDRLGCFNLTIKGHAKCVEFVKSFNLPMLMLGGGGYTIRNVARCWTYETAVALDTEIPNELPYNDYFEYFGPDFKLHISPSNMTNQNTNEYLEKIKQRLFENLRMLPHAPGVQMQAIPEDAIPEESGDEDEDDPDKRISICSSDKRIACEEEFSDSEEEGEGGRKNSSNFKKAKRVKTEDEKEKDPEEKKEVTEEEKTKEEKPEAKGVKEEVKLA
Chain of human recombinant HDAC3 (O15379 whole entry): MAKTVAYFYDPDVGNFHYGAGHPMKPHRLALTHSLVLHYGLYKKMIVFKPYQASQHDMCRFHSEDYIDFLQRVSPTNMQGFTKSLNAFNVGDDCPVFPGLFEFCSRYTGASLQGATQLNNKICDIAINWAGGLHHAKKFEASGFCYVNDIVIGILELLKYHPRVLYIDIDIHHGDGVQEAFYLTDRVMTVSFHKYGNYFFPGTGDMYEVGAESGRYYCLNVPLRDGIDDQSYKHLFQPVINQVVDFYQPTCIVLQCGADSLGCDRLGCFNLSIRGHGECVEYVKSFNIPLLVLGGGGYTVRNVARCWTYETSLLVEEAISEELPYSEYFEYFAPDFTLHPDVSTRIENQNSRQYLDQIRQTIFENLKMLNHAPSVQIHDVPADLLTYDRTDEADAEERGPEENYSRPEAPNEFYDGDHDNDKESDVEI
Chain of human recombinant HDAC3 (Q9Y618 395-489 partner limits assumed): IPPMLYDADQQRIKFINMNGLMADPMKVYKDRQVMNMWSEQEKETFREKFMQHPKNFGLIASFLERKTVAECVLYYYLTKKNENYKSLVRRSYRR
Chain of human recombinant HDAC2 (Q92769 whole entry): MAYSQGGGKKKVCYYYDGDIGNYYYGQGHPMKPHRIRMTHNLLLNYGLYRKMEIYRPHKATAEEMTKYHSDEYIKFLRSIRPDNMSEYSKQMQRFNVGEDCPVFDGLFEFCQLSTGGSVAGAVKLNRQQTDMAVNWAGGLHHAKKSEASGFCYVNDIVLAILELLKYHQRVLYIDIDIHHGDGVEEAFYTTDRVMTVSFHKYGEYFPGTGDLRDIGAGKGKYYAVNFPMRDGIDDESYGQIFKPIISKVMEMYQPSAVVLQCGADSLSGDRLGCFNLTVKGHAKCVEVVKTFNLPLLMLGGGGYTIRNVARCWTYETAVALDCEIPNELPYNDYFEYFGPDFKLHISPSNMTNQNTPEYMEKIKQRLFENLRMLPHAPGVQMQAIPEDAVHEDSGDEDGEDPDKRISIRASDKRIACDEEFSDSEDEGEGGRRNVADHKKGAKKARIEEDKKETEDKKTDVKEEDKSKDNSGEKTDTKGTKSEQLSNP

SMILES: O=C(CCCCCCNC(=O)c1c(-c2ccc(O)cc2)sc2cc(O)ccc12)NO [8b, 6-hydroxy-N-(7-(hydroxyamino)-7-oxoheptyl)-2-(4-hydroxyphenyl)benzo[b]thiophene-3-carboxamide]
Inhibition of estrogenic response (antiestrogenic activity), ERE-luciferase reporter (ERα [1]): concentration dependent inhibition of estrogenic response

SMILES: O=C(CCCCCn1cc(-c2ccc(C(=O)c3c(-c4ccc(O)cc4)sc4cc(O)ccc34)cc2)nn1)NO [15b, N-hydroxy-6-(4-(4-(6-hydroxy-2-(4-hydroxyphenyl)benzo[b]thiophene-3-carbonyl)phenyl)-1H-1,2,3-triazol-1-yl)hexanamide]
IC50 (ERα [2]): 2900 ± 300 nM
Cell death in MDA-MB-231 ER(−) cells (MDA-MB-231 ER(−) cells): caused significant cell death
Inhibition of estrogenic response (antiestrogenic activity), ERE-luciferase reporter (ERα [1]): concentration dependent inhibition of estrogenic response

SMILES: Oc1ccc(-c2sc3cc(O)ccc3c2Oc2ccc(OCCN3CCCCC3)cc2)cc1 [DMA, desmethylarzoxifene]
Toxicity towards MCF-7 cells (MCF-7 ER(+) cells; 10 μM, 72 h treatment): toxic

SMILES: O=C(Nc1cc(-c2ccccc2)ccc1O)c1c(-c2ccc(O)cc2)sc2cc(O)ccc12 [compound 10, 6-hydroxy-N-[4-hydroxy-(1,1′-biphenyl)-3-yl]-2-(hydroxyphenyl)benzo[b]thiophene-3-carboxamide]
% inhibition of HDAC1 (human recombinant HDAC1; pre-incubation 3 h): 21–34%
% inhibition of HDAC3 (human recombinant HDAC3; pre-incubation 3 h): 0–12%

IC50 (human recombinant HDAC1): 8390 ± 300 nM
IC50 (human recombinant HDAC3): 5740 ± 530 nM
IC50 (human recombinant HDAC2): 19200 ± 650 nM
IC50 [3]: 23500 ± 1500 nM
SMILES: O=C(CCCCn1cc(-c2ccc(C(=O)c3c(-c4ccc(O)cc4)sc4cc(O)ccc34)cc2)nn1)NO [15a, N-hydroxy-5-(4-(4-(6-hydroxy-2-(4-hydroxyphenyl)benzo[b]thiophene-3-carbonyl)phenyl)-1H-1,2,3-triazol-1-yl)pentanamide]

SMILES: CC/C(=C(\c1ccc(O)cc1)c1ccc(OCCN(C)C)cc1)c1ccccc1 [4OHT, 4-hydroxytamoxifen]
Cell death, combination with SAHA (MCF-7 ER(+) cells; ER(+) MCF-7 cells, 72 h combination treatment): modest but significantly increased cell death
Increase in apoptosis in combination with SAHA over SAHA alone (MCF-7 cells): approximately 10%

IC50 (human recombinant HDAC1): 596 ± 51 nM
IC50 (human recombinant HDAC3): 214 ± 6 nM
IC50 (human recombinant HDAC2): 2440 ± 20 nM
IC50 [3]: 719 ± 63 nM
SMILES: O=C(CCCCCNC(=O)c1c(-c2ccc(O)cc2)sc2cc(O)ccc12)NO [8a, 6-hydroxy-N-(6-(hydroxyamino)-6-oxohexyl)-2-(4-hydroxyphenyl)benzo[b]thiophene-3-carboxamide]
